Series [1] is described as follows: UV absorbance spectra without and with saturating cation. The series is classed as physicochemical. Conditions: for Absorbance maxima -Na⁺ (wavelength): 100 mM tetramethylammonium chloride plus 1-5 mM Tris; for Absorbance maxima -Na⁺ (wavelength) / Absorbance maxima -Na⁺ (extinction coefficient): no Na⁺; for Absorbance maxima +Na⁺ (wavelength): enough NaCl added (0.2-1 M) to saturate the Na⁺ binding; for Absorbance maxima -Na⁺ (extinction coefficient) / Absorbance maxima +Na⁺ (extinction coefficient) / Absorbance maxima +Na⁺, footnote l (extinction coefficient): number is 10⁻³ x the extinction coefficient; for Absorbance maxima -Na⁺ (extinction coefficient): lower limits for most compounds; for Absorbance maxima +Na⁺ (extinction coefficient): lower limits, saturating NaCl (0.2-1 M); for Absorbance maxima +Na⁺, footnote l (extinction coefficient) / Absorbance maxima +Na⁺, footnote l (wavelength): saturating K⁺ rather than Na⁺. The procedure: (§1) • Footnote a: For molecular structures, see Fig. 1. • Footnote b: Except where otherwise noted, these dissociation constants were measured with the chelator dissolved in 0.1 M tetramethylammonium chloride, at a pH held high enough with 1-5 mM tris(hydroxymethyl)aminomethane for protonation to be insignificant. The absorbance spectrum, or the fluorescence excitation spectrum for those compounds (2GG, 2NN, 2OO, 2PP, 3NN) with acronyms was measured as a function of the concentration of cation added as a solid or concentrated aqueous solution of the halide salt. No correction has been made for the changing ionic strength of the solution, which started from 0.1 M and increased, but the absorbances and fluorescence amplitudes were applied for dilution of the dye and any slight quenching due to high concentrations of Cl⁻. • Footnote c: These protonation constants were determined in 0.1 M tetramethylammonium chloride, 10 mM tris(hydroxymethyl)aminomethane, titrated with 5 M H₃PO₄ to successively lower pH values measured with a Radiometer PHM84 meter. […] The first number is the wavelength in nanometers, followed in parentheses by 10⁻³ x the corresponding extinction coefficient, M⁻¹cm⁻¹. […] Emission maxima are not corrected for the spectral sensitivity of the emission detection. Quantum efficiencies were measured (13) by comparing the integral of the corrected emission spectrum with the corresponding integral for a solution of quinine bisulfate in 1 N H₂SO₄ of matched absorbance at the excitation wavelength.
(§2) UV absorbance spectra were recorded initially on a Cary 210 and later on a Perkin-Elmer Lambda Array 3840 spectrophotometer. Fluorescence excitation and emission spectra and quantum efficiencies were measured on a Spex Fluorolog 111 as described previously (13).

Series [2] is described as follows: Cation titration followed by absorbance or fluorescence excitation spectra: Na⁺ binding. Here is the method:
as §1
(§3) Affinities for other cations were usually measured by titrating aqueous solutions of the indicator with metal chlorides added either as solid or from concentrated stock solutions, taking care to minimize dilution and correct for it. A convenient way to mass-produce premeasured micromole to millimole aliquots of solid NaCl or KCl was to pipet saline solutions into polypropylene micro test tubes and evaporate the water in an oven. The standard ionic background was again 100 mM tetramethylammonium chloride, usually with a few mM of tris(hydroxymethyl)-aminomethane base to hold the pH high enough (pH 8-9) to insure that protonation was negligible. This convenient titration procedure had the slight disadvantage that the ionic strength was not constant, especially when large quantities of a salt had to be added due to weak affinities. […] When constant ionic strength was desired, the chelator was made up at identical concentrations in matched solutions of NaCl, KCl, or tetramethylammonium chloride, then these stocks were mixed in the desired proportions. All measurements were made at room temperature (22°, ±2° C).

Series [3] is described as follows: Cation titration followed by absorbance or fluorescence excitation spectra: Mg²⁺ binding. Conditions: read-out: Dissociation constants (Kd) in mM for Mg²⁺. The procedure:
as §1
as §3, with “proportions.” for “proportions. All measurements were made at room temperature (22°, ±2° C).”

A short description of series [4]: physchem. Conditions: 0.1 m tetramethylammonium chloride.
Experimental: (§4) • Footnote a: For molecular structures, see Fig. 1. • Footnote b: Except where otherwise noted, these dissociation constants were measured with the chelator dissolved in 0.1 M tetramethylammonium chloride, at a pH held high enough with 1-5 mM tris(hydroxymethyl)aminomethane for protonation to be insignificant. […] No correction has been made for the changing ionic strength of the solution, which started from 0.1 M and increased, but the absorbances and fluorescence amplitudes were applied for dilution of the dye and any slight quenching due to high concentrations of Cl⁻. • Footnote c: These protonation constants were determined in 0.1 M tetramethylammonium chloride, 10 mM tris(hydroxymethyl)aminomethane, titrated with 5 M H₃PO₄ to successively lower pH values measured with a Radiometer PHM84 meter.
(§5) Proton dissociation constants of the chelators were measured by spectrophotometry or spectrofluorometry of buffered solutions, containing either 100 mM tetramethylammonium chloride as inert supporting electrolyte, or 121.5 mM K⁺, 13.5 mM Na⁺, and 1 mM Mg²⁺ to simulate the cation environment of vertebrate cytoplasm (14). Traces of UV-absorbing impurities in the tetramethylammonium chloride (Alfa Inorganics) were removed by filtration through acid-­washed activated charcoal. The concentration of the tetramethylammonium chloride was then measured by chloride titration, and the absence of significant Na⁺ contamination was verified with a sodium-selective glass electrode (Microelectrodes Inc.). When the chelators contained two protonatable nitrogens, the curve of absorbance or fluorescence versus pH was analyzed by computerized least-squares fitting to the equations for two arbitrary proton equilibria (15), with the added assumption that the two protonations each caused the same change in extinction coefficient or fluorescence.
A short description of series [5]: Proton dissociation constants in 0.1 M tetramethylammonium chloride. Conditions: second value (second protonation), 10 mM Tris titrated with 5 M H₃PO₄.
Experimental: as §4, §5
Series [6] can be described thus: Cation titration followed by absorbance or fluorescence excitation spectra: Ca²⁺ binding. As to conditions: 0.1 M tetramethylammonium chloride, 1-5 mM tris(hydroxymethyl)aminomethane, high pH; read-out: Dissociation constants (Kd) in mM for Ca²⁺. Here is the method:
as §1, §3

Series [7] is described as follows: physchem.
Experimental: The lowest curve ([Na⁺] = 0) was obtained with 5 µM SBFI in 130 mM KCl, 10 mM MOPS, KOH to pH 7.05, approximately 135 mM total K⁺. The highest curve ([Na⁺] = 135 mM) was analogously recorded from 5 µM SBFI in 130 mM NaCl, 10 mM MOPS, NaOH to pH 7.05. The intermediate curves from 1.35 to 94.5 mM Na⁺ were obtained by successively 1/100, 1/99, 3/98, 1/19, 1/9, 1/4, and 1/2 of the K⁺-rich SBFI solution by the SBFI in Na medium. The excitation bandwidth was 1.85 nm; emission was collected at 500 nm with 9.3 nm bandwidth. […] The lowest curve was obtained in 130 mM NaCl, 10 mM MOPS, NaOH to pH 7.05. The highest curve was in 130 mM KCl, 10 mM MOPS, KOH to pH 7.05. The intermediate curves with 13.5 to 112.5 mM K⁺ were obtained by iteratively replacing 1/10, 1/9, 1/6, 1/4, 1/3, and 1/2 of the low K⁺ medium by the 135 mM KCl solution of PBFP.
Proton dissociation constants of the chelators were measured by spectrophotometry or spectrofluorometry of buffered solutions, containing either 100 mM tetramethylammonium chloride as inert supporting electrolyte, or 121.5 mM K⁺, 13.5 mM Na⁺, and 1 mM Mg²⁺ to simulate the cation environment of vertebrate cytoplasm (14). […] When the chelators contained two protonatable nitrogens, the curve of absorbance or fluorescence versus pH was analyzed by computerized least-squares fitting to the equations for two arbitrary proton equilibria (15), with the added assumption that the two protonations each caused the same change in extinction coefficient or fluorescence. This assumption was based on the presence of two identical chromophores in each chelator and produced good fits to the experimental data.
Series [8] is described as follows: Fluorescence excitation/emission spectra and quantum efficiency. Conditions: for Emission maxima -Na⁺: 100 mM tetramethylammonium chloride; for Emission maxima -Na⁺ / Quantum efficiency -Na⁺: no Na⁺; for Emission maxima -Na⁺ / Emission maxima +Na⁺: not corrected for detector sensitivity; for Quantum efficiency -Na⁺ / Quantum efficiency +Na⁺: relative to quinine bisulfate in 1 N H₂SO₄ (0.55); for Emission maxima +Na⁺: saturating NaCl; for Quantum efficiency +Na⁺: saturating Na⁺; for Emission maxima +Na⁺, footnote l / Quantum efficiency +Na⁺, footnote l: saturating K⁺ rather than Na⁺. The series is classed as physicochemical. The procedure: as §1, §2

The nature of series [9]: Cation titration followed by absorbance or fluorescence excitation spectra: K⁺ binding. As to conditions: 0.1 M tetramethylammonium chloride, 1-5 mM tris(hydroxymethyl)aminomethane, high pH; read-out: Dissociation constants (Kd) in mM for K⁺. The procedure: as §1
Affinities for other cations were usually measured by titrating aqueous solutions of the indicator with metal chlorides added either as solid or from concentrated stock solutions, taking care to minimize dilution and correct for it. […] This convenient titration procedure had the slight disadvantage that the ionic strength was not constant, especially when large quantities of a salt had to be added due to weak affinities. […]

The conditions of series [10]: quinine bisulfate in 1 N H₂SO₄; assumed value; cited from earlier work.
Series [11] is described as follows: Solubility in water for spectrophotometry. The series is classed as physicochemical.
The nature of series [12]: Cation titration followed by absorbance or fluorescence excitation spectra: Li⁺ binding. The procedure:
as §1, §3

Where [13] appears, read: 0.1 M tetramethylammonium chloride, 1-5 mM tris(hydroxymethyl)aminomethane, pH high enough for protonation to be insignificant, 22°, read-out: Dissociation constants (Kd) in mM for Na⁺.
Where [14] appears, read: 0.1 M tetramethylammonium chloride, 1-5 mM tris(hydroxymethyl)aminomethane, high pH.
Setting [15] is: footnote h: 3.0 M ionic strength (3.0 M NaCl mixed with 3.0 M tetramethylammonium chloride), read-out: Dissociation constants (Kd) in mM for Na⁺.

Where “and” joins values, the source holds several entries; their conditions need not be identical. Identical values can stand only once.

For the compound `COc1cc2cc(-c3ccc(C(=O)O)c(C(=O)O)c3)oc2cc1N1CCOCCOCCN(c2cc3oc(-c4ccc(C(=O)O)c(C(=O)O)c4)cc3cc2OC)CCOCC1` [Compound 2NN, N,N-bis-(2-(3,4-dicarboxyphenyl)-5-methoxybenzofuran-6-yl)-diaza[15]-crown-5], in [1], the “Absorbance maxima -Na⁺ (wavelength)” value is 342 nanometers, the “Absorbance maxima +Na⁺ (wavelength)” value was determined as 334 nanometers, the Absorbance maxima -Na⁺ (extinction coefficient) turned out to be 45500 M⁻¹ cm⁻¹ and the Absorbance maxima +Na⁺ (extinction coefficient) was determined as 51600 M⁻¹ cm⁻¹. Moreover, the Kd in [2] (setting [13]) was 8.5 mM. Further, in series [2] (summary statement, conditions not specified, read-out: dissociation constant (Na⁺), range achieved), the Kd is 5 to 20 mM. Further, the Kd in [3] (setting [14]) is 18 mM. The pKa in “physchem [4]” was 6.3. In series [5], the pKa is recorded as 5.5. The Kd in [6] worked out at 40 mM. In the series “physchem [7]” (126 mm kcl, 14 mm nacl), this compound returned a pKa of 6.4. For the same compound, in series [8], the “Emission maxima -Na⁺” value is recorded as 528 nanometers, the “Quantum efficiency -Na⁺” value is reported as “.036”, the “Emission maxima +Na⁺” value was 505 nanometers and the “Quantum efficiency +Na⁺” value was “.091”.

With `COc1cc2cc(-c3ccc(C(=O)O)c(C(=O)O)c3)oc2cc1N1CCOCCOCCN(c2cc3oc(-c4ccc(C(=O)O)c(C(=O)O)c4)cc3cc2OC)CCOCCOCC1` [Compound 3NN, N,N-bis(2-(3,4-dicarboxyphenyl)-5-methoxybenzofuran-6-yl)-diaza[18]-crown-5], in [1], the “Absorbance maxima -Na⁺ (wavelength)” value amounted to 344 nanometers; the Absorbance maxima -Na⁺ (extinction coefficient) was found to be 23000 M⁻¹ cm⁻¹; the Absorbance maxima +Na⁺, footnote l (extinction coefficient) came out at 25000 M⁻¹ cm⁻¹; the “Absorbance maxima +Na⁺, footnote l (wavelength)” value is recorded as 337 nanometers. In addition, in series [9], the Kd amounted to 83 mM. Besides, the pKa in the series “physchem [7]” (126 mm kcl, 14 mm nacl) stood at 6.68. Besides, in [8], the “Emission maxima -Na⁺” value is recorded as 518 nanometers; the “Quantum efficiency -Na⁺” value is given as “.0075”; the “Emission maxima +Na⁺, footnote l” value is 494^l nanometers; the “Quantum efficiency +Na⁺, footnote l” value was “.12^l”.

As for `C=C[C@H]1C[N@@]2CC[C@H]1C[C@H]2[C@H](O)c1ccnc2ccc(OC)cc12` [Quinine, quinine bisulfate], the “quantum efficiency of reference standard” value in [10] is given as 0.55.

On to `COc1cc2cc(-c3ncc(C(=O)O)o3)oc2cc1N1CCOCCOCCN(c2cc3oc(-c4ncc(C(=O)O)o4)cc3cc2OC)CCOCC1` [Compound 2OO, N,N-bis-(2-(5-carboxyoxazol-2-yl)-5-methoxybenzofuran-6-yl)-diaza[15]-crown-5], for which the “Absorbance maxima -Na⁺ (wavelength)” value in series [1] amounted to 355 nanometers. Besides, the “Absorbance maxima +Na⁺ (wavelength)” value in series [1] was determined as 343 nanometers. The Absorbance maxima -Na⁺ (extinction coefficient) in series [1] came to 25000 M⁻¹ cm⁻¹. For the same compound, in [1], the Absorbance maxima +Na⁺ (extinction coefficient) came out at 27000 M⁻¹ cm⁻¹. Moreover, the figures for the Kd in series [2] (setting [13]), in series [2] (setting [15]) and in [3] (setting [14]) were 50 mM, 22 mM and 63 mM, respectively. In [2] (association constant, inert background cation (tetramethylammonium)), the “Na⁺ affinity” value is recorded as 20 M⁻¹. The pKa was 5.34 in “physchem [4]”; 4.15 in series [5]; 4.82 in “physchem [7]” (126 mm kcl, 14 mm nacl). For the same compound, the “Emission maxima -Na⁺” value in series [8] is 515 nanometers. Also, the “Quantum efficiency -Na⁺” value in series [8] (listed as 2OO (SBFO)) was “.14”; in series [8] (listed as SBFO), 0.14. Besides, the “Emission maxima +Na⁺” value in [8] stood at 500 nanometers. Further, the “Quantum efficiency +Na⁺” value in [8] (listed as 2OO (SBFO)) is recorded as “.44”; in [8] (listed as SBFO) it was 0.44.

`COc1cc2cc(-c3ccc(C(=O)O)cc3C(=O)O)oc2cc1N1CCOCCOCCN(c2cc3oc(-c4ccc(C(=O)O)cc4C(=O)O)cc3cc2OC)CCOCCOCC1` [Compound 3PP]: in [1], the “Absorbance maxima -Na⁺ (wavelength)” value is listed as 350 nanometers; the Absorbance maxima -Na⁺ (extinction coefficient) was found to be 42000 M⁻¹ cm⁻¹; the Absorbance maxima +Na⁺, footnote l (extinction coefficient) came to 42000 M⁻¹ cm⁻¹; the “Absorbance maxima +Na⁺, footnote l (wavelength)” value is 344 nanometers. Moreover, in [9], the Kd worked out at 8 mM. Besides, the Kd in series [2] (setting [13]) worked out at 21 mM. The Kd in [3] (setting [14]) came to 40 mM. Further, the Kd in [6] was determined as 16 mM. Besides, the pKa in the series “physchem [7]” was found to be 5.78. Besides, in series [8], the “Emission maxima -Na⁺” value was 545 nanometers; the “Quantum efficiency -Na⁺” value is on record as “.024”; the “Emission maxima +Na⁺, footnote l” value was 504^l nanometers; the “Quantum efficiency +Na⁺, footnote l” value is recorded as “.072^l”.

With “N,N-bis-(1-acetamidoacridin-4-yl)-diaza[15]-crown-5 [Compound 2HH]”, the solubility in water entry in series [11] is recorded as “insufficiently soluble in water for spectrophotometry”.

For `CC(=O)Nc1ccc(N2CCOCCOCCN(c3ccc(NC(C)=O)c4cccnc34)CCOCC2)c2ncccc12` [Compound 2CC, N,N-bis-(5-acetamido-8-quinolinyl)-diaza[15]-crown-5], the “Absorbance maxima -Na⁺ (wavelength)” value in series [1] is 346 nanometers and 250 nanometers. In addition, the “Absorbance maxima +Na⁺ (wavelength)” value in series [1] is 304 nanometers and 230 nanometers. In addition, the Kd in [2] (setting [13]) is 5.3 mM; in series [2] (setting [15]) it was 2.4 mM; in series [3] (footnote i: free [Mg²⁺] controlled by Mg²⁺-nitrilotriacetate buffers at pH 8.5), 0.078 mM; in series [12] (0.1 M tetramethylammonium chloride, 1-5 mM tris(hydroxymethyl)aminomethane, high pH, read-out: Dissociation constants (Kd) in mM for Li⁺), 2.8 mM; in series [6], 0.075 mM. Moreover, the “Na⁺ affinity” value in series [2] (depending on ionic strength) lay within 190 to 415 M⁻¹. In [12] (compared with its Na⁺ affinity), the “affinity for Li⁺ (in words)” value is “comparable to that for Na⁺”. Moreover, the pKa in “physchem [4]” turned out to be 6.85; in [5] it was 5.43.

Broadly, the pKa is the pH at which an ionisable group is half protonated.

These data come from EP0369733A2, “Fluorescent indicator dyes for alkali metal cations, their preparation and use” (THE REGENTS OF THE UNIVERSITY OF CALIFORNIA, priority 1988, dated 1990).
